# Results taken from patent US7704533B2, “Compositions and methods of inducing hair growth utilizing Continus coggygria” (J&J Consumer Companies, Inc., priority 2006, dated 2010).
# Assays:
# C3H mice = experiment: Hair growth induction in C3H mice (mice entering anagen); assay type: in vivo
# Description: C3H female mice age 6-7 weeks of age were purchased from Taconic Farms (Germantown, N.Y.). Mice were housed in appropriately sized cages in an environmentally controlled room with a 12-hour light-12-hour dark photoperiod and supplied with food and water ad libitum. Animal care was based on the “Guide for the Care and Use of Laboratory Animals”, NIH Publication No. 85-23. Animals were acclimated for a week before study starts. Once all mice entered their prolonged telogen/resting phase (about 50-60 days long) of the hair cycle, they were clipped over the dorsal area about 1.5×5 cm (Wahl Clippers 8900 Series, Blade # 1086). Seven female mice per group were clipped while sedated with 2% induction and maintenance isoflurane and 0.5 L Oxygen. In addition to the 150 mg/ml Cotinus coggygria formulation, the treatment groups included a placebo, 5% Minoxidil as positive control and an untreated group to serve as control for natural hair growth initiation and to observe placebo effects. 200 μl of test materials were applied topically to the area daily, 5 days a week. Images were taken at the first signs of anagen/active growth phase and when needed based on visual observation. Skin samples were obtained for histological analysis at week 3 and a study log documenting day-to-day observations of mice entering anagen (grey skin, the first visual clue to a new hair growth) were recorded. Treatments continued for up to 6 weeks. […] C3H mice were treated as described in Example 3. In addition to the 150 mg/ml Cotinus coggygria formulation prepared as a concentrate via heat processing, a lyophilized Cotinus extract powder was prepared as described above, as well as lower (60 mg/ml, 90 mg/ml, 120 mg/ml) and higher concentrations (up to 210 mg/ml) of Cotinus coggygria extracts (Table III). The treatment groups included a placebo, 5% minoxidil as positive control and an untreated group to serve as control for natural hair growth initiation and to observe placebo effects. 200 ul of test materials were applied topically to the area daily, 5 days a week. Images were taken at the first signs of anagen/active growth phase and when needed based on visual observation. Skin samples were obtained for histological analysis and a study log documenting day-to-day observations of mice entering anagen (grey skin) were recorded. Treatments continued for up to 6 weeks. […] Moreover, a dose-dependent increase in dorsal hair coverage was observed visually and documented by images, and also confirmed by histological analysis. […] C3H female mice clipped over the dorsal area once they have entered their prolonged telogen phase (about 8 weeks long) were topically treated once daily for 6 weeks with 200 μl 150 mg/ml of Cotinus coggygria extract or with 5% Minoxidil or with the combination of both agents. […] C3H hair growth studies were performed as described in earlier examples, with the addition of formulation agents to the cotinus extract preparation.
# [1] = test system: postmenopausal women with androgenetic alopecia; settings: one-year trial; cited from earlier work
structure (smiles),measurement,setting,value
"Nc1cc(N2CCCCC2)nc(N)[n+]1[O-] [5% Minoxidil, Minoxidil]",% of mice entering anagen,"C3H mice; Table II, day 9 of study, listed as Ave 5% Minoxidil",7%
same,% of mice entering anagen,"C3H mice; Table II, day 9 of study, listed as Best 5% Minoxidil",20%
same,% of mice entering anagen,"C3H mice; Table II, day 10 of study, listed as Ave 5% Minoxidil",18%
same,% of mice entering anagen,"C3H mice; Table II, day 10 of study, listed as Best 5% Minoxidil",40%
same,% of mice entering anagen,"C3H mice; Table II, day 13 of study, listed as Ave 5% Minoxidil",18%
same,% of mice entering anagen,"C3H mice; Table II, day 13 of study, listed as Best 5% Minoxidil",40%
same,% of mice entering anagen,"C3H mice; Table II, day 14 of study, listed as Ave 5% Minoxidil",31%
same,% of mice entering anagen,"C3H mice; Table II, day 14 of study, listed as Best 5% Minoxidil",80%
same,% of mice entering anagen,"C3H mice; Table II, day 16 of study, listed as Ave 5% Minoxidil",31%
same,% of mice entering anagen,"C3H mice; Table II, day 16 of study, listed as Best 5% Minoxidil",80%
same,% of mice entering anagen,"C3H mice; Table II, day 20 of study, listed as Ave 5% Minoxidil",32%
same,% of mice entering anagen,"C3H mice; Table II, day 20 of study, listed as Best 5% Minoxidil",80%
same,% of mice entering anagen,"C3H mice; Table II, day 22 of study, listed as Ave 5% Minoxidil",41%
same,% of mice entering anagen,"C3H mice; Table II, day 22 of study, listed as Best 5% Minoxidil",80%
same,% of mice entering anagen,"C3H mice; Table II, day 23 of study, listed as Ave 5% Minoxidil",38%
same,% of mice entering anagen,"C3H mice; Table II, day 23 of study, listed as Best 5% Minoxidil",80%
same,% of mice entering anagen,"C3H mice; Table II, day 24 of study, listed as Ave 5% Minoxidil",36%
same,% of mice entering anagen,"C3H mice; Table II, day 24 of study, listed as Best 5% Minoxidil",75%
same,% of mice entering anagen,"C3H mice; Table II, day 27 of study, listed as Ave 5% Minoxidil",36%
same,% of mice entering anagen,"C3H mice; Table II, day 27 of study, listed as Best 5% Minoxidil",75%
same,% of mice entering anagen,"C3H mice; Table II, day 29 of study, listed as Ave 5% Minoxidil",36%
same,% of mice entering anagen,"C3H mice; Table II, day 29 of study, listed as Best 5% Minoxidil",100%
same,% of mice entering anagen,"C3H mice; Table II, day 31 of study, listed as Ave 5% Minoxidil",45%
same,% of mice entering anagen,"C3H mice; Table II, day 31 of study, listed as Best 5% Minoxidil",100%
same,% of mice entering anagen,"C3H mice; Table II, day 35 of study, listed as Ave 5% Minoxidil",48%
same,% of mice entering anagen,"C3H mice; Table II, day 35 of study, listed as Best 5% Minoxidil",100%
same,% of mice entering anagen,"C3H mice; Table II, day 42 of study, listed as Ave 5% Minoxidil",63%
same,% of mice entering anagen,"C3H mice; Table II, day 42 of study, listed as Best 5% Minoxidil",100%
same,% of mice entering anagen,"C3H mice; Table II, day 43 of study, listed as Ave 5% Minoxidil",87%
same,% of mice entering anagen,"C3H mice; Table II, day 43 of study, listed as Best 5% Minoxidil",100%
same,% of mice entering anagen,"C3H mice; Table II, day 44 of study, listed as Ave 5% Minoxidil",93%
same,% of mice entering anagen,"C3H mice; Table II, day 44 of study, listed as Best 5% Minoxidil",100%
same,% of mice entering anagen,"C3H mice; Table III, day 8 of study",0%
same,% of mice entering anagen,"C3H mice; Table III, day 9 of study",0%
same,% of mice entering anagen,"C3H mice; Table III, day 10 of study",14%
same,% of mice entering anagen,"C3H mice; Table III, day 11 of study",43%
same,% of mice entering anagen,"C3H mice; Table III, day 14 of study",33%
same,% of mice entering anagen,"C3H mice; Table III, day 15 of study",33%
same,% of mice entering anagen,"C3H mice; Table III, day 16 of study",33%
same,% of mice entering anagen,"C3H mice; Table III, day 17 of study",20%
same,% of mice entering anagen,"C3H mice; Table III, day 18 of study",40%
same,% of mice entering anagen,"C3H mice; Table III, day 21 of study",80%
same,% of mice entering anagen,"C3H mice; Table III, day 22 of study",80%
same,% of mice entering anagen,"C3H mice; Table III, day 23 of study",80%
same,% of mice entering anagen,"C3H mice; Table III, day 24 of study",80%
same,% of mice entering anagen,"C3H mice; Table III, day 25 of study",80%
same,% of mice entering anagen,"C3H mice; Table III, day 28 of study",80%
same,% of mice entering anagen,"C3H mice; Table III, day 29 of study",80%
CC(C)(C)NC(=O)[C@H]1CC[C@H]2[C@@H]3CC[C@H]4NC(=O)C=C[C@]4(C)[C@H]3CC[C@]12C [Finasteride],scalp hair growth,[1],did not improve scalp hair growth
